Test results taken from ChEMBL document CHEMBL1126326, “Novel antagonists of the 5-HT3 receptor. Synthesis and structure-activity relationships of (2-alkoxybenzoyl)ureas” (J Med Chem, 1992).

target: T1, Serotonin 3 (5-HT3) receptor (Rattus norvegicus, UniProt P35563+Q9JJ16); test: In vitro antagonism of the 5-HT-3 receptor determined by inhibition of 5-HT-induced depolarization of the isolated rat vagus nerve.; format: functional; conditions: read-out: pA2 (converted)
T1 sequence (P35563 whole entry): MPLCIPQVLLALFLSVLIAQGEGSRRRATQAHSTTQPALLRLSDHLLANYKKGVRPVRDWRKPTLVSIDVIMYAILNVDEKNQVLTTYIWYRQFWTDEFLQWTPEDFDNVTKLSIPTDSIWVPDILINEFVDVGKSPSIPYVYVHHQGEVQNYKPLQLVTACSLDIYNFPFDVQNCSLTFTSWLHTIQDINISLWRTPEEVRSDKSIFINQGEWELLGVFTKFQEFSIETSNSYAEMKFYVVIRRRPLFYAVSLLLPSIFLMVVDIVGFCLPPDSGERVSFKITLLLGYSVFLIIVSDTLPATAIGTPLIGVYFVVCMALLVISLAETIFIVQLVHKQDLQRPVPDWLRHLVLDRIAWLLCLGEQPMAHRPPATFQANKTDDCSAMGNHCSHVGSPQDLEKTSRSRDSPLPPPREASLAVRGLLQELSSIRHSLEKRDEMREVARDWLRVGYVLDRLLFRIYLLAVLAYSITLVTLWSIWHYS
T1 sequence (Q9JJ16 whole entry): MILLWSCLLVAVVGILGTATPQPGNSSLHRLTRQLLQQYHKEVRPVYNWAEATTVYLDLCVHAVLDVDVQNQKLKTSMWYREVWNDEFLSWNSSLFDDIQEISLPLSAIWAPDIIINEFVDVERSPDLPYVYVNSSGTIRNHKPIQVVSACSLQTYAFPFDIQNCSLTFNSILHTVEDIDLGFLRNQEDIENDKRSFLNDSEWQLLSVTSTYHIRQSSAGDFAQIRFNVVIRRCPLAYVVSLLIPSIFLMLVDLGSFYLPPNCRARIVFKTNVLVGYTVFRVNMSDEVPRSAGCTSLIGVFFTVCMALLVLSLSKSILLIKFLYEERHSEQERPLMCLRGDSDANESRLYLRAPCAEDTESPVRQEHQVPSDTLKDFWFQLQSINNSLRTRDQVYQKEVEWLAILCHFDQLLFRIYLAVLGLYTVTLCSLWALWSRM

Structure (SMILES)	Kb
COc1ccccc1C(=O)NC(=O)N[C@H]1CN2CCC1CC2	7.08 nM
CN1CCC(OC(=O)NC(=O)c2cc(Cl)cc(Cl)c2)CC1	126 nM
COc1ccccc1C(=O)NC(=O)NC1CC2CCC(C1)N2C (centres undefined) [listing 1 of 2 here]	> 31.6 nM
CN1C2CCC1CC(NC(=O)NC(=O)c1ccccc1OCC1CC1)C2 (centres undefined)	1.26 nM
COc1ccccc1C(=O)NC(=O)N[C@@H]1CN2CCC1CC2	56.2 nM
CCOc1ccccc1C(=O)NC(=O)NC1CC2CCC(C1)N2C (centres undefined)	2.04 nM
COc1ccc(C(=O)NC(=O)NC2CN3CCC2CC3)cc1 (centres undefined)	> 316 nM
O=C(NC(=O)c1ccccc1F)NC1CN2CCC1CC2 (centres undefined)	> 316 nM
CC(C)Oc1ccccc1C(=O)NC(=O)NC1CC2CCC(C1)N2C (centres undefined)	0.631 nM
Cc1ccccc1C(=O)NC(=O)NC1CN2CCC1CC2 (centres undefined)	251 nM
COc1ccccc1C(=O)NC(=O)NC1CN2CCC1CC2 (centres undefined)	10 nM
COc1cc([N+](=O)[O-])ccc1C(=O)NC(=O)NC1CC2CCC(C1)N2C (centres undefined)	> 100 nM
COc1ccccc1C(=O)NC(=O)OC1CN2CCC1CC2 (centres undefined)	36.3 nM
COc1cccc(OC)c1C(=O)NC(=O)NC1CN2CCC1CC2 (centres undefined)	> 316 nM
CCCOc1ccccc1C(=O)NC(=O)NC1CC2CCC(C1)N2C (centres undefined)	1.26 nM
CC(C)COc1ccccc1C(=O)NC(=O)NC1CC2CCC(C1)N2C (centres undefined)	3.16 nM
CC(C)CCOc1ccccc1C(=O)NC(=O)NC1CC2CCC(C1)N2C (centres undefined)	6.31 nM
COc1ccccc1C(=O)NC(=O)OC1CC2CCC(C1)N2C (centres undefined)	17 nM
COc1ccccc1C(=O)NC(=O)NC1CC2CCCC(C1)N2C (centres undefined)	39.8 nM
CCCCCOc1ccccc1C(=O)NC(=O)NC1CC2CCC(C1)N2C (centres undefined)	31.6 nM
CN1C2CCC1CC(NC(=O)NC(=O)c1ccccc1O)C2 (centres undefined)	12.6 nM
CCCCOc1ccccc1C(=O)NC(=O)NC1CC2CCC(C1)N2C (centres undefined)	2 nM
COc1ccccc1C(=O)NC(=O)NC1CC2CCC(C1)N2C (centres undefined) [listing 2 of 2 here]	2.51 nM
O=C(NC(=O)c1cc(Cl)cc(Cl)c1)NC1CN2CCC1CC2 (centres undefined)	200 nM
COc1cc(N)c(Cl)cc1C(=O)NC(=O)NC1CC2CCC(C1)N2C (centres undefined)	79.4 nM
COc1ccc(Cl)cc1C(=O)NC(=O)NC1CC2CCC(C1)N2C (centres undefined)	46.8 nM
COc1cc(N)ccc1C(=O)NC(=O)NC1CC2CCC(C1)N2C (centres undefined)	158 nM
CN1[C@@H]2CC[C@H]1C[C@@H](OC(=O)c1cc(Cl)cc(Cl)c1)C2 [BEMESETRON]	15.8 nM
COc1cc(N)c(Cl)cc1C(=O)NC1CN2CCC1CC2 (centres undefined) [ZACOPRIDE]	0.794 nM
